{"source": "ChEMBL document CHEMBL1155531", "about": "“Structure guided design of 5-arylindazole glucocorticoid receptor agonists and antagonists” (J Med Chem, 2010)", "key": {"[1]": {"assay": "Antiinflammatory activity in human primary synovial fibroblasts assessed as inhibition of IL1-induced MMP1 release after 18 hrs by MSD technology", "assay_type": "functional"}, "Mus musculus [2]": {"system": "Mus musculus", "assay": "Inhibition of IL1-induced circulating IL6 release in mouse at 10 mg/kg, po", "assay_type": "functional"}, "[3]": {"assay": "Tmax in DBA1 mouse at 1 mg/kg, po", "assay_type": "ADME, organism-based", "design": "dose 1 mg/kg, route oral", "details": "in vivo"}, "[4]": {"assay": "Plasma concentration in mouse bearing mouse NIH-3T3 cells integrated with MMTV reporter gene at 100 mg/kg, po after 1 hr", "assay_type": "ADME, organism-based, NIH3T3", "design": "dose 100 mg/kg, route oral"}, "[5]": {"assay": "Plasma concentration in mouse bearing mouse NIH-3T3 cells integrated with MMTV reporter gene at 10 mg/kg, po after 1 hr", "assay_type": "ADME, organism-based, NIH3T3", "design": "dose 10 mg/kg, route oral"}, "[6]": {"assay": "Relative plasma concentration in mouse assessed as ratio of plasma concentration in mouse at 1 mg/kg, po to IC50 for NF-kappaB transrepression activity in A549 cells expressing MMTV reporter gene", "assay_type": "ADME, organism-based", "design": "dose 1 mg/kg, route oral", "details": "in vivo"}, "Hepatocyte": {"system": "Hepatocyte", "assay": "Toxicity in human hepatocytes assessed as increase in PEPCK mRNA level after 18 hrs by PCR", "assay_type": "cell-based"}, "[7]": {"assay": "Elimination half life in CD rat at 1 mg/kg, po and 1 mg/kg, iv", "assay_type": "ADME, organism-based", "details": "in vivo, read-out: beta t1/2 (converted)"}, "[8]": {"assay": "Oral bioavailability in CD rat at 1 mg/kg", "assay_type": "ADME, organism-based", "details": "in vivo"}, "[9]": {"assay": "Relative plasma concentration in mouse assessed as ratio of plasma concentration in mouse at 10 mg/kg, po to IC50 for NF-kappaB transrepression activity in A549 cells expressing MMTV reporter gene", "assay_type": "ADME, organism-based", "design": "dose 10 mg/kg, route oral", "details": "in vivo"}, "[10]": {"assay": "Tmax in CD rat at 1 mg/kg, po", "assay_type": "ADME, organism-based", "design": "dose 1 mg/kg, route oral", "details": "in vivo"}, "[11]": {"assay": "Relative fraction unbound in mouse assessed as ratio of fraction unbound in mouse at 1 mg/kg, po to IC50 for NF-kappaB transrepression activity in A549 cells expressing MMTV reporter gene", "assay_type": "ADME, organism-based", "design": "dose 1 mg/kg, route oral", "details": "in vivo"}, "[12]": {"assay": "Antiinflammatory activity in human primary synovial fibroblasts assessed as inhibition of IL1-induced IL8 release after 18 hrs by MSD technology", "assay_type": "functional"}, "[13]": {"assay": "Toxicity in human skeletal muscle cells assessed as increase in glutamine synthase mRNA level after 18 hrs by PCR"}, "Progesterone receptor": {"target": "T1, Progesterone receptor (Homo sapiens, UniProt P06401)", "T1 sequence (P06401 whole entry)": "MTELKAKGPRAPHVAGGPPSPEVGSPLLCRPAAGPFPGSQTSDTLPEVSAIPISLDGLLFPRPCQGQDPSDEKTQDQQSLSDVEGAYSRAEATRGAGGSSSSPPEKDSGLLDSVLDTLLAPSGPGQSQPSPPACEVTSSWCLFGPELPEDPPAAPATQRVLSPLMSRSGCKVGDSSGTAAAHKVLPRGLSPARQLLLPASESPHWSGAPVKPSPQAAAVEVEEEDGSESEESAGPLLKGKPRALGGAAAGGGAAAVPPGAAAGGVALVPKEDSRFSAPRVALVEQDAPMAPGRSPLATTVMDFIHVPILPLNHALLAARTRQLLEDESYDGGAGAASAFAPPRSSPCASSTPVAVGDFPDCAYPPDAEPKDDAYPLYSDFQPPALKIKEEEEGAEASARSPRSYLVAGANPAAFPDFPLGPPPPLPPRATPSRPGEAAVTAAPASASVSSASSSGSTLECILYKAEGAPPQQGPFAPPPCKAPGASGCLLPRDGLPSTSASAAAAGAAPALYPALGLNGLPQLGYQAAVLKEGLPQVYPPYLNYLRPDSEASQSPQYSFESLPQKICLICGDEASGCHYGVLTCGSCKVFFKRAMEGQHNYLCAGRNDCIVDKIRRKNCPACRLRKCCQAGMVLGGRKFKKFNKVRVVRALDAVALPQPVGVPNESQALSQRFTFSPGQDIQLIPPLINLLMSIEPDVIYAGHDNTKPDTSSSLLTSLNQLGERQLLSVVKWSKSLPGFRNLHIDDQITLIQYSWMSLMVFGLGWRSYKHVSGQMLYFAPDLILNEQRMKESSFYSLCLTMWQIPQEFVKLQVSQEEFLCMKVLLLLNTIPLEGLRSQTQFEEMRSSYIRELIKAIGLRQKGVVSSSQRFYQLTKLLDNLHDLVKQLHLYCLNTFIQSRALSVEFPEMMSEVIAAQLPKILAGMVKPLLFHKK", "assay": "Binding affinity to PR"}, "[14]": {"assay": "Elimination half life in DBA1 mouse at 1 mg/kg, po and 1 mg/kg, iv", "assay_type": "ADME, organism-based", "details": "in vivo, read-out: beta t1/2 (converted)"}, "[15]": {"assay": "Volume of distribution at steady state in DBA1 mouse at 1 mg/kg, po and 1 mg/kg, iv", "assay_type": "ADME, organism-based", "details": "in vivo, read-out: Vdss"}, "Glucocorticoid receptor [16]": {"target": "T2, Glucocorticoid receptor (Homo sapiens, UniProt P04150)", "T2 sequence (P04150 whole entry)": "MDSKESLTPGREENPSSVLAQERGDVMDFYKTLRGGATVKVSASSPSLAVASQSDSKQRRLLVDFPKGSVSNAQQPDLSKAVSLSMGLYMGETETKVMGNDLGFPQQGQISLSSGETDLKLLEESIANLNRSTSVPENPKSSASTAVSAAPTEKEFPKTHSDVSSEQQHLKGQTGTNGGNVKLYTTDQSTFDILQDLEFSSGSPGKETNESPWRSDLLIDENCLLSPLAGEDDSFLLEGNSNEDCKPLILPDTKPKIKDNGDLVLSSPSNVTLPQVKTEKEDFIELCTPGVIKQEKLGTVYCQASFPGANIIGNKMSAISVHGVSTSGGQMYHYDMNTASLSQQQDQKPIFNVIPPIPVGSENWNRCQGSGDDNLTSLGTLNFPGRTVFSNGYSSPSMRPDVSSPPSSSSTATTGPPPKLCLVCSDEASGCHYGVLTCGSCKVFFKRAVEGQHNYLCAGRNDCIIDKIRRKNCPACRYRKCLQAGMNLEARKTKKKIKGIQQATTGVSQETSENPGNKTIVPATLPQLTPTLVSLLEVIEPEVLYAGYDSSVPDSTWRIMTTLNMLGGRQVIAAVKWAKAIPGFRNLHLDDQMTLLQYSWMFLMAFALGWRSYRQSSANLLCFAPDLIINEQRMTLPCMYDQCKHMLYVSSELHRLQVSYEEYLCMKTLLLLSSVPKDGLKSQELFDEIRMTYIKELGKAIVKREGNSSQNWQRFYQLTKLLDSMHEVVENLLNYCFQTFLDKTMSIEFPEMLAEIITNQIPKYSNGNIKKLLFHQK", "assay": "Displacement of fluorescent-labeled Dexamethasone from GR by fluorescent polarization assay"}, "[17]": {"assay": "Relative plasma concentration in mouse assessed as ratio of plasma concentration in mouse at 0.1 mg/kg, po to IC50 for NF-kappaB transrepression activity in A549 cells expressing MMTV reporter gene", "assay_type": "ADME, organism-based", "design": "dose 0.1 mg/kg, route oral", "details": "in vivo"}, "Glucocorticoid receptor [18]": {"target": "T2, Glucocorticoid receptor", "assay": "Activity at GR in human A549 cells by NF-kappaB transrepression assay", "assay_type": "cell-based"}, "Mus musculus [19]": {"system": "Mus musculus", "assay": "Inhibition of IL1-induced circulating IL6 release in mouse at 0.1 mg/kg, po", "assay_type": "functional"}, "Glucocorticoid receptor [20]": {"target": "T2, Glucocorticoid receptor", "assay": "Agonist activity at GR in human A549 cells transfected with luciferase gene linked to MMTV promoter assessed as luciferase transactivation activity after 24 hrs", "assay_type": "functional, cell-based"}, "Mus musculus [21]": {"system": "Mus musculus", "assay": "Inhibition of IL1-induced circulating IL6 release in mouse at 1 mg/kg, po", "assay_type": "functional"}}, "data": [{"smiles": "O=S(=O)(Cc1ccccc1)Nc1ccc(-c2ccc3c(cnn3-c3ccc(F)cc3)c2)c(C(F)(F)F)c1", "values": [{"measurement": "IC50", "setting": "[1]", "value": 1.26, "unit": "nM"}, {"measurement": "inhibition in vivo at 10 mg/kg", "setting": "Mus musculus [2]", "value": 44, "unit": "%"}, {"measurement": "Tmax", "setting": "[3]", "value": 6, "unit": "h"}, {"measurement": "concentration at 1 h", "setting": "[4]", "value": 12.1, "unit": "µM"}, {"measurement": "concentration at 1 h", "setting": "[5]", "value": 2.73, "unit": "µM"}, {"measurement": "fold change (FC)", "setting": "[6]", "value": 29}, {"measurement": "Activity", "setting": "Hepatocyte", "value": "Toxic"}, {"measurement": "half-life", "setting": "[7]", "value": 3.3, "unit": "h"}, {"measurement": "bioavailability", "setting": "[8]", "value": "> 22", "unit": "%"}, {"measurement": "fold change (FC)", "setting": "[9]", "value": 273}, {"measurement": "Tmax", "setting": "[10]", "value": 6, "unit": "h"}, {"measurement": "fold change (FC)", "setting": "[11]", "value": 0.06}, {"measurement": "IC50", "setting": "[12]", "value": 2, "unit": "nM"}, {"measurement": "Activity", "setting": "[13]", "value": "Toxic"}, {"measurement": "IC50", "setting": "Progesterone receptor", "value": "> 10000", "unit": "nM"}, {"measurement": "half-life", "setting": "[14]", "value": 4, "unit": "h"}, {"measurement": "Vd", "setting": "[15]", "value": 1.8, "unit": "L/kg"}, {"measurement": "IC50", "setting": "Glucocorticoid receptor [16]", "value": 10, "unit": "nM"}, {"measurement": "fold change (FC)", "setting": "[17]", "value": 2.5}, {"measurement": "IC50", "setting": "Glucocorticoid receptor [18]", "value": 10, "unit": "nM"}, {"measurement": "inhibition in vivo at 0.1 mg/kg", "setting": "Mus musculus [19]", "value": 0, "unit": "%"}, {"measurement": "EC50", "setting": "Glucocorticoid receptor [20]", "value": 20, "unit": "nM"}, {"measurement": "inhibition in vivo at 1 mg/kg", "setting": "Mus musculus [21]", "value": 0, "unit": "%"}]}]}
